A word on the IC50: it is the concentration that gives 50% inhibition.

Molecules are shown by their SMILES. Calls of active or inactive are those of the source. No cut-off for these calls is given here.

One data set deals with Plasmodium berghei. In words: Antiplasmodial activity against hepatic stage Plasmodium berghei infected in Huh-7 cells assessed as cell viability incubated for 1 hrs by bioluminescence assay. It counts as functional, organism-based. Conditions: for IC50: Huh-7, 1 h.
Data set [1] relates to Plasmodium falciparum. As to the kind of experiment: Antiplasmodial activity against chloroquine-sensitive erythrocytic stage Plasmodium falciparum 3D7 assessed as inhibition of parasite growth incubated for 3 days by HRP2-ELISA. It counts as functional, organism-based. The note with it: 3D7, 72 h. In general terms: ELISA stands for enzyme-linked immunosorbent assay.
Data set [2] in a line: Selectivity index, ratio of IC50 for human HepG2 cells to IC50 for […] erythrocytic stage Plasmodium falciparum 3D7. It counts as toxicity. The note with it: read-out: Selectivity Index.
The subject of a further data set is HepG2. As to the kind of experiment: Cytotoxicity against human HepG2 cells assessed as cell growth inhibition incubated for 1 day by neutral red assay. It counts as functional, cell-based. The note with it: HepG2, 24 h.
Data set [3] has as its system Plasmodium falciparum. In words: Antiplasmodial activity against chloroquine-resistant erythrocytic stage Plasmodium falciparum Dd2 assessed as inhibition of parasite growth incubated for 3 days by HRP2-ELISA. Conditions: Dd2, 72 h. It counts as functional, organism-based.

Take `Cc1nccc2c1[nH]c1ccc(OCCNC(=O)/C=C/c3cccc(Br)c3)cc12`: the outcome with Plasmodium berghei was Active. The values for the IC50 in the data set with Plasmodium falciparum [1], with HepG2 and in the data set on Plasmodium falciparum [3] were 190 nM, 7.57 µM and 630 nM, respectively. In addition, the selectivity ratio in data set [2] was 39.8.

Regarding `Cc1nc(CNC(=O)/C=C/c2ccc(Cl)cc2)cc2c1[nH]c1ccccc12`, the result with Plasmodium berghei was Active. Further, the IC50 was 2920 nM in the data set with Plasmodium falciparum [1], 11.3 µM with HepG2 and 8380 nM in the data set on Plasmodium falciparum [3]. In addition, the selectivity ratio in data set [2] stood at 3.88.

For the compound `COc1ccc(/C=C/C(=O)NCc2cc3c([nH]c4ccccc43)c(C)n2)cc1`, the outcome with Plasmodium berghei was Active. The IC50 with Plasmodium falciparum [1] is 6500 nM; with HepG2, 10.4 µM; in the data set on Plasmodium falciparum [3] it was 10700 nM. Moreover, the selectivity ratio in data set [2] came out at 1.6.

Take `Cc1nccc2c1[nH]c1ccc(OCCNC(=O)/C=C/c3ccc(Cl)cc3)cc12`: the result in the data set on Plasmodium berghei was Active. In addition, the IC50 in the data set with Plasmodium falciparum [1] is 360 nM; in the data set with HepG2, over 250 µM; with Plasmodium falciparum [3], 920 nM. The selectivity ratio in data set [2] was over 694.

Regarding `Cc1nccc2c1[nH]c1ccc(OCCNC(=O)/C=C/c3cccc(F)c3)cc12`, the outcome in the data set with Plasmodium berghei was Active. Also, the IC50 was found to be 1110 nM in the data set with Plasmodium falciparum [1], 37.6 µM with HepG2 and 1300 nM with Plasmodium falciparum [3]. In data set [2], the selectivity ratio turned out to be 33.9.

Regarding `Cc1nc(CO)cc2c3ccccc3n(Cc3cn(C/C=C/c4cccc(Br)c4)nn3)c12`, in the data set with Plasmodium berghei, the result was Active. In addition, the values for the IC50 in the data set with Plasmodium falciparum [1], in the data set with HepG2 and in the data set with Plasmodium falciparum [3] were 6280 nM, over 125 µM and 18400 nM, respectively. Moreover, in data set [2], the selectivity ratio is over 19.9.

For the compound `Cc1nc(CNC(=O)/C=C/c2cccc(F)c2)cc2c1[nH]c1ccccc12`, the outcome in the data set with Plasmodium berghei was Active. The IC50 was found to be 5740 nM with Plasmodium falciparum [1], 15.8 µM in the data set on HepG2 and 12700 nM with Plasmodium falciparum [3]. Besides, the selectivity ratio in data set [2] worked out at 2.76.

Consider `COc1ccc(/C=C/C(=O)NCCOc2ccc3[nH]c4c(C)nccc4c3c2)cc1`, for which the result in the data set with Plasmodium berghei was Active. Besides, the IC50 with Plasmodium falciparum [1] was 1170 nM; in the data set with HepG2, over 250 µM; with Plasmodium falciparum [3], 2860 nM. For the same compound, the selectivity ratio in data set [2] was over 214.

On to `COc1ccc(/C=C/Cn2cc(COc3ccc4[nH]c5c(C)nccc5c4c3)nn2)cc1`, for which the result in the data set with Plasmodium berghei was Active. In addition, the IC50 in the data set with Plasmodium falciparum [1] was 600 nM; in the data set on HepG2 it was 88 µM; in the data set with Plasmodium falciparum [3] it was 1810 nM. In data set [2], the selectivity ratio is 147.

With `Cc1nc(CNC(=O)/C=C/c2ccccc2)cc2c1[nH]c1ccccc12`, in the data set with Plasmodium berghei, the result was Active. Besides, the figures for the IC50 in the data set with Plasmodium falciparum [1], in the data set with HepG2 and in the data set with Plasmodium falciparum [3] were 5780 nM, 7.05 µM and 10200 nM, respectively. The selectivity ratio in data set [2] was determined as 1.29.

Regarding `Cc1nc(CNC(=O)/C=C/c2ccc(F)cc2)cc2c1[nH]c1ccccc12`, the outcome in the data set with Plasmodium berghei was Active. For the same compound, the IC50 with Plasmodium falciparum [1] came to 4130 nM; with HepG2, 12.5 µM; in the data set with Plasmodium falciparum [3] it was 13300 nM. Besides, in data set [2], the selectivity ratio is 2.99.

For `Cc1nccc2c1[nH]c1ccc(OCc3cn(C/C=C/c4cccc(F)c4)nn3)cc12`, the outcome in the data set with Plasmodium berghei was Active. The IC50 was determined as 550 nM with Plasmodium falciparum [1], 10.5 µM in the data set on HepG2 and 2280 nM with Plasmodium falciparum [3]. Besides, in data set [2], the selectivity ratio came out at 19.1.

As for `Cc1nccc2c1[nH]c1ccc(OCc3cn(C/C=C/c4ccc(Cl)cc4)nn3)cc12`, the result in the data set with Plasmodium berghei was Active. Further, the values for the IC50 with Plasmodium falciparum [1], in the data set with HepG2 and in the data set on Plasmodium falciparum [3] were 570 nM, 3.95 µM and 950 nM, respectively. The selectivity ratio in data set [2] came out at 6.93.

Consider `COc1ccc2c3ccnc(C)c3n(CCNC(=O)/C=C/c3cccc(C(F)(F)F)c3)c2c1`, for which the IC50 came to 1.9 µM in the data set on Plasmodium berghei, 60 nM in the data set with Plasmodium falciparum [1], 66.3 µM in the data set with HepG2 and 330 nM in the data set with Plasmodium falciparum [3]. Further, the selectivity ratio in data set [2] came to 1110.

As for `Cc1nc(Cn2cc(COC(=O)/C=C/c3cccc(Br)c3)nn2)cc2c1[nH]c1ccccc12`, in the data set with Plasmodium berghei, the result was Active. Further, the IC50 with Plasmodium falciparum [1] was 16400 nM; with HepG2, 110 µM; with Plasmodium falciparum [3], 11100 nM. Further, the selectivity ratio in data set [2] stood at 6.71.

On to `Cc1nc(CNC(=O)/C=C/c2cccc(C(F)(F)F)c2)cc2c1[nH]c1ccccc12`, for which the outcome in the data set on Plasmodium berghei was Active. The IC50 with Plasmodium falciparum [1] came to 2010 nM; in the data set on HepG2 it was 9.37 µM; with Plasmodium falciparum [3], 7400 nM. Moreover, the selectivity ratio in data set [2] is 4.66.

For the compound `Cc1nccc2c1[nH]c1ccc(OCc3cn(C/C=C/c4ccccc4)nn3)cc12`, the result in the data set on Plasmodium berghei was Active. The IC50 amounted to 610 nM in the data set with Plasmodium falciparum [1], 10.1 µM with HepG2 and 2120 nM in the data set with Plasmodium falciparum [3]. Besides, the selectivity ratio in data set [2] is 16.6.

For `Cc1nccc2c1[nH]c1ccc(OCCNC(=O)/C=C/c3ccc(C(F)(F)F)cc3)cc12`, the outcome in the data set with Plasmodium berghei was Active. Also, the IC50 was 120 nM in the data set with Plasmodium falciparum [1], 3.59 µM in the data set with HepG2 and 350 nM in the data set on Plasmodium falciparum [3]. The selectivity ratio in data set [2] was 29.9.

As for `Cc1nc(CNC(=O)/C=C/c2ccc(C(F)(F)F)cc2)cc2c1[nH]c1ccccc12`, the result with Plasmodium berghei was Active. Also, the results for the IC50 in the data set with Plasmodium falciparum [1], in the data set on HepG2 and with Plasmodium falciparum [3] were 2300 nM, 33.3 µM and 5970 nM, respectively. In data set [2], the selectivity ratio came out at 14.5.

For the compound `Cc1nccc2c1[nH]c1ccc(OCCNC(=O)/C=C/c3ccccc3)cc12`, the result with Plasmodium berghei was Active. For the same compound, the IC50 in the data set on Plasmodium falciparum [1] was found to be 1550 nM; with HepG2, 12 µM; with Plasmodium falciparum [3], 2470 nM. Also, the selectivity ratio in data set [2] came out at 7.75.

Consider `Cc1nccc2c1[nH]c1ccc(OCCNC(=O)/C=C/c3ccc(F)cc3)cc12`, for which, in the data set on Plasmodium berghei, the result was Active. Also, the concentration for half-maximal inhibition (IC50) was 950 nM in the data set with Plasmodium falciparum [1], over 250 µM with HepG2 and 1670 nM in the data set with Plasmodium falciparum [3]. Besides, in data set [2], the selectivity ratio was over 263.

For the compound `Cc1nc(Cn2cc(COC(=O)/C=C/c3ccc(Cl)cc3)nn2)cc2c1[nH]c1ccccc12`, the result in the data set with Plasmodium berghei was Active. Besides, the IC50 in the data set on Plasmodium falciparum [1] is 21400 nM; in the data set with HepG2 it was 70.5 µM; in the data set with Plasmodium falciparum [3], over 27800 nM. For the same compound, the selectivity ratio in data set [2] came out at 3.29.

On to `COc1ccc2c3ccnc(C)c3n(CCNC(=O)/C=C/c3ccc(C(F)(F)F)cc3)c2c1`, for which the IC50 in the data set with Plasmodium berghei came out at 8.4 µM; in the data set with Plasmodium falciparum [1], 40 nM; in the data set with HepG2 it was 5.84 µM; in the data set on Plasmodium falciparum [3] it was 170 nM. In addition, the selectivity ratio in data set [2] was 146.

Turning to `Cc1nc(CNC(=O)/C=C/c2cccc(Br)c2)cc2c1[nH]c1ccccc12`, in the data set with Plasmodium berghei, the result was Active. For the same compound, the results for the IC50 in the data set on Plasmodium falciparum [1], in the data set on HepG2 and in the data set with Plasmodium falciparum [3] were 3230 nM, 9.64 µM and 1480 nM, respectively. The selectivity ratio in data set [2] stood at 2.98.
